{"source": "patent EP1024807B1", "about": "“USE OF THE COMPOUND 2-METHOXYPHENYL-1-METHYL-5P-METHYLBENZOYL-PYRROL-2-ACETAMIDO ACETATE FOR THE PRODUCTION OF AN ANTI-INFLAMMATORY DRUG WITH PREVENTION OF GASTRIC HYPERSECRETION AND RENAL IMPAIRMENT” (MEDOSAN Ricerca S.r.l., priority 1997, dated 1999)", "key": {"[1]": {"test_system": "rat isolated stomach strips", "test": "Gastric motility in isolated stomach strips, acetylcholine and serotonin as agonists", "details": "acetilcholine and serotonin as agonists"}, "Acute toxicity studies": {"test": "Acute toxicity studies", "details": "in vivo"}, "[2]": {"test_system": "patients with rheumatoid arthritis in the active phase", "test": "Clinical trials in rheumatoid arthritis", "assay_type": "in vivo, man", "details": "150 patients, 30 days; versus ibuprofen, indomethacin, piroxicam, tolmetin; listed as Amtolmetin guacyl", "text": "Amtolmetin guacyl was compared with ibuprofen, indomethacin, piroxicam and tolmetin."}, "Rats": {"test_system": "Rats", "test": "Diuresis in normally hydrated rats", "assay_type": "in vivo", "description": "In the course of various studies conducted on animals to show the lack of renal impairment, a test was carried out to compare the diuresis in normally hydrated rats treated orally for 8 consecutive days with amtolmeting guacyl and diclofenac, which is also a NSAID. […] It is to be stressed that the behaviour of diclofenac is completely in line with the behaviour of a NSAID as known in the art, that is to say to markedly reduce the diuresis, while that of amtolmeting guacyl is completely unforeseeable.\nRepeated doses (one per day) for 8 days increased diuresis in the treated rats by 35% (see fig. 13)."}}, "note": "Entries after “also recorded” stand apart in the source; their conditions may differ."}
{"smiles": "COc1ccccc1OC(=O)CNC(=O)Cc1ccc(C(=O)c2ccc(C)cc2)n1C", "note": "[MED 15, 2-methoxyphenyl-1-methyl-5p-methylbenzoylpyrrol-2-acetamido acetate]", "values": [{"measurement": "motility", "setting": "[1]", "value": "down-regulation of motility"}, {"measurement": "acute toxicity, tolerability", "setting": "Acute toxicity studies", "value": "excellent drug tolerability"}, {"measurement": "Evaluation of antiphlogistic activity", "setting": "[2]", "value": "significantly more rapid and marked anti-inflammatory activity compared to the reference NSAIDs; also recorded: Amtolmetin guacyl demonstrated statistical significant activity more rapid and more marked when compared to the reference NSAIDs in rheumatoid arthritis"}, {"measurement": "increased diuresis", "setting": "Rats; repeated doses (one per day) for 8 days", "value": 35, "unit": "%"}, {"measurement": "increased diuresis", "setting": "Rats; single dose, average", "value": 10, "unit": "%"}, {"measurement": "diuresis", "setting": "Rats; treated orally for 8 consecutive days, fig. 13", "value": "definite increase in diuresis"}]}
